The subject of experiment [1] is GSPY1 cells (Thyroid cancer; Papillary). Kind of experiment: Cell proliferation IC50 (MTT), patient-derived papillary thyroid cancer cells GSPY1. Format: cell-based. The settings on record: Homo sapiens, PTC stage IV, mean ± SEM, read-out: cell proliferation IC50 - half maximal inhibitory concentration.
Experiment [2] relates to GSPY2 cells (Thyroid cancer; Papillary). In words: Cell proliferation IC50 (MTT), patient-derived papillary thyroid cancer cells GSPY2. Format: cell-based. The settings on record: Homo sapiens, PTC stage IV, mean ± SEM, read-out: cell proliferation IC50 - half maximal inhibitory concentration.
Experiment [3] concerns GSPO1 cells (Thyroid cancer; Papillary). In words: Cell proliferation IC50 (MTT), patient-derived papillary thyroid cancer cells GSPO1 (first line). Format: cell-based. The settings on record: Homo sapiens, adult patient, by order of Table 3, PTC stage IV, mean ± SEM, read-out: cell proliferation IC50 - half maximal inhibitory concentration.
Experiment [4] shares this test system. Kind of experiment: Cell proliferation IC50 (MTT), patient-derived papillary thyroid cancer cells GSPO1 (second line of the same label). Format: cell-based. Particulars: Homo sapiens, adult patient, by order of Table 3, PTC stage IV, mean ± SEM, read-out: cell proliferation IC50 - half maximal inhibitory concentration.
For experiment [5], the system named is cancer cells from young patients (어린 환자의 암 세포). Kind of experiment: Cell count over 7 days after drug treatment, young-patient papillary thyroid cancer cells. Format: cell-based, human. The settings on record: unlike sorafenib, Figs. 4 to 7.
Experiment [6] relates to EMT protein (e.g. Snail, Zeb1) (EMT 단백질). In words: EMT protein expression in young-patient-derived cancer cells. Format: cell-based, human. Particulars: young-patient-derived cancer cell lines.
Experiment [7] has as its system FGFR signaling (e.g. PKC, MEK, p-ERK) (FGFR 시그널링). In words: FGFR signaling in young-patient-derived cancer cells. Format: cell-based, human. Particulars: young-patient-derived cancer cell lines.

Turning to `CCN(CC)C(=S)SSC(=S)N(CC)CC` [Disulfiram, 디에틸카르바모티올설파닐 N,N-디에틸카르바모디티오에이트], the IC50 in experiment [1] was 0.305 µM; in experiment [2], 0.304 µM; in experiment [3], 0.22 µM; in experiment [4], 0.21 µM. Besides, in experiment [5], the “inhibition of cancer proliferation (cell number)” value is reported as “어린 환자에게서 더 효과적으로 암의 증식을 억제하는 것을 확인할 수 있었다”. In addition, the “effect on EMT protein expression” value in experiment [6] is on record as “EMT 단백질의 발현(예를 들면, Snail, Zeb1 등)을 억제(down-regulated)”. For the same compound, the “inhibition of FGFR signaling” value in experiment [7] is given as “FGFR 시그널링(예를 들면, PKC, MEK, p-ERK 등)을 억제”.

On to `CNC(=O)c1cc(Oc2ccc(NC(=O)Nc3ccc(Cl)c(C(F)(F)F)c3)cc2)ccn1` [Sorafenib, 4-[4-[[[[4-클로로-3-(트리플루오르메틸)페닐]아미노]카르복실]아미노]페녹시]-N-메틸-2-피리딘카르복사미드], for which the IC50 in experiment [1] turned out to be 17.2 µM; in experiment [2], 20.2 µM; in experiment [3] it was 9.84 µM; in experiment [4] it was 10.1 µM. Moreover, the “effect on EMT protein expression” value in experiment [6] is listed as “FGFR을 기반으로 하는 EMT 단백질 발현에 영향을 주지 않는”.

The record behind these values is patent KR20210106935A, “암의 예방 또는 치료용 조성물” (연세대학교 산학협력단, priority 2019, dated 2021).
